What was measured:
[1] = target: T1, OATP1B3 (Homo sapiens, UniProt Q9NPD5); conditions: antibiotic as perpetrator, salvianolic acid B (X10) as victim; (Cmax × fu-p × R)/IC50
T1 sequence (Q9NPD5 1-702): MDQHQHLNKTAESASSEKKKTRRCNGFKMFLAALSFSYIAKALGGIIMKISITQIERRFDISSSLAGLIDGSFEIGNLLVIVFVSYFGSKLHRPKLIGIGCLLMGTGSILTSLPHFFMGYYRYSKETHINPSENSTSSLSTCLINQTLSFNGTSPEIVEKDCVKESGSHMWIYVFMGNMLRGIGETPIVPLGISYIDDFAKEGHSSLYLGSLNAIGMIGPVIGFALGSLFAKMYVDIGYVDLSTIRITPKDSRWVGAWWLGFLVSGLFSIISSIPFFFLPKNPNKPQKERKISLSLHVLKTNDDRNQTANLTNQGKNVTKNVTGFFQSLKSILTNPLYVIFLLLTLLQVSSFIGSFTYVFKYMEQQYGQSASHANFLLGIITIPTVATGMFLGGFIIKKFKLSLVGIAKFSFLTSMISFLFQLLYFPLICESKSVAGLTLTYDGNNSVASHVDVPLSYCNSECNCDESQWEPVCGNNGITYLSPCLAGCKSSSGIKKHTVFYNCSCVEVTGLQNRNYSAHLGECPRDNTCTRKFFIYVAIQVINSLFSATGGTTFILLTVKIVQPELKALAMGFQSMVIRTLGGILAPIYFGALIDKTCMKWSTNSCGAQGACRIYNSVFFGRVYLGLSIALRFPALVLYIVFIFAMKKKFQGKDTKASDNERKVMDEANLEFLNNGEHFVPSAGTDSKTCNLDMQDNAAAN

[2] = test system: ALDH; assay type: in vitro ADME; conditions: human, pooled human liver cytosol
[3] = target: T1, OATP1B3; conditions: IC50, OATP1B3 [X10], mean ± SD (n = 3)
[4] = target: T1, OATP1B3; assay: in vitro
[5] = target: T2, UGT2B15 (Homo sapiens, UniProt P54855); assay type: in vitro ADME; conditions: for Inhibition DDI index, UGT2B15: antibiotic as perpetrator, senkyunolide I (X5) as victim, (Cmax × fu-p × R)/IC50
T2 sequence (P54855 24-530): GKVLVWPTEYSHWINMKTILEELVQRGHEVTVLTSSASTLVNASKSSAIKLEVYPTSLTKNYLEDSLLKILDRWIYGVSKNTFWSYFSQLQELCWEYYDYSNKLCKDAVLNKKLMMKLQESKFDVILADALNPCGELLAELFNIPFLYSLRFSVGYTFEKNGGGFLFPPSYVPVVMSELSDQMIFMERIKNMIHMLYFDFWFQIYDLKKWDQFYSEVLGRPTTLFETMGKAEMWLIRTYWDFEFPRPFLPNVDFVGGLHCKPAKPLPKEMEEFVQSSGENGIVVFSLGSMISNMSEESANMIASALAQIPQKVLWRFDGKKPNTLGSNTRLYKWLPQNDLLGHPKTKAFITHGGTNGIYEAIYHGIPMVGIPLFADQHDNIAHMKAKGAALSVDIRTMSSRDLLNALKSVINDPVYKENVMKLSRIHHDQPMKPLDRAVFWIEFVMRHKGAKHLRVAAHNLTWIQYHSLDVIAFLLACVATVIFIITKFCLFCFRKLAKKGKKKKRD

[6] = target: T3, OAT1 (Homo sapiens, UniProt Q4U2R8); assay: OAT1 inhibition by antibiotics, transfected HEK293 cells, tanshinol as substrate
T3 sequence (Q4U2R8 1-563): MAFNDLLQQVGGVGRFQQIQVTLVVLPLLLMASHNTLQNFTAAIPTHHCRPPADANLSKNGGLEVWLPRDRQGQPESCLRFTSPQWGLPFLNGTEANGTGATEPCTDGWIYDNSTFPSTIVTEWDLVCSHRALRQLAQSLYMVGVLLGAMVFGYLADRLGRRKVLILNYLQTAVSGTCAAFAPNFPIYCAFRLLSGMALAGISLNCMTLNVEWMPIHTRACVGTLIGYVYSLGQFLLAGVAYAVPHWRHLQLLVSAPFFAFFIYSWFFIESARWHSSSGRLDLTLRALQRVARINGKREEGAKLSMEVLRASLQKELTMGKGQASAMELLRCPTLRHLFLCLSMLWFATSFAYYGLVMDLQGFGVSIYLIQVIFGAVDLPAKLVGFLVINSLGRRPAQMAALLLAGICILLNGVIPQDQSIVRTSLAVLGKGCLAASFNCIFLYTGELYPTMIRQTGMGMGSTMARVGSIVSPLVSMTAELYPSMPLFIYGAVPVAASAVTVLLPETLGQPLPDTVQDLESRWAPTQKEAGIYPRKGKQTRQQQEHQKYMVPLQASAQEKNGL

[7] = target: T4, OAT2 (Homo sapiens, UniProt Q9Y694); assay: OAT2 inhibition by antibiotics, transfected HEK293 cells, tanshinol as substrate; assay type: in vitro ADME; conditions: for Inhibition DDI index, OAT2: antibiotic as perpetrator, tanshinol (X8) as victim, (Cmax × fu-p × R)/IC50
T4 sequence (Q9Y694 1-546 isoform Q9Y694-2): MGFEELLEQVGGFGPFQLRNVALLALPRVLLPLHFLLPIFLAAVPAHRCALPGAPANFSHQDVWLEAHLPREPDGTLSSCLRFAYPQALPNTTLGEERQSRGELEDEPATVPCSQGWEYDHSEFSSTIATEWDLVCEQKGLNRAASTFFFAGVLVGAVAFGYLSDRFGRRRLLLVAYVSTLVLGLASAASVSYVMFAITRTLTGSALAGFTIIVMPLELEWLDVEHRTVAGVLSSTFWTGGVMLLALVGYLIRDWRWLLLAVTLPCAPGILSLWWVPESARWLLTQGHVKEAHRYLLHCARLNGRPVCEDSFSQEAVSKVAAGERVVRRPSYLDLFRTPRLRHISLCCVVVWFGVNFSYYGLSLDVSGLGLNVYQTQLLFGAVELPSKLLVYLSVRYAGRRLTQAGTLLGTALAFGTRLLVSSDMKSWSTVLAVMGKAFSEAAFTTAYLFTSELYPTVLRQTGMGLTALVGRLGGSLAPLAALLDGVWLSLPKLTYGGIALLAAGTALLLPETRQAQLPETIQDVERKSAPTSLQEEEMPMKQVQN

[8] = HEK293, read-out: Inhibition of OAT2

CO[C@@]1(NC(=O)Cc2cccs2)C(=O)N2C(C(=O)O)=C(COC(N)=O)CS[C@@H]21 [A20, cefoxitin]
Inhibition DDI index, OATP1B3 [1]: 2.81
IC50 [2]: 983 ± 117 µM
inhibition at 1000 μmol/L [2]: 56 to 88%
IC50 [3]: 26 ± 19 µM
inhibition at 1000 μmol/L [4]: > 90%
IC50 [5]: 57 ± 11 µM
Inhibition DDI index, UGT2B15 [5]: 1.28
inhibition at 1000 μmol/L ([5]; human, cDNA-expressed UGT2B15): ≥ 90%

CC(C)(O/N=C(\C(=O)N[C@@H]1C(=O)N2C(C(=O)[O-])=C(C[n+]3ccccc3)CS[C@H]12)c1csc(N)n1)C(=O)O [A7, ceftazidime]
IC50 [2]: 1030 ± 155 µM
inhibition at 5000 μmol/L [2]: 56 to 88%

CCC(C)n1ncn(-c2ccc(N3CCN(c4ccc(OCC5COC(Cn6cncn6)(c6ccc(Cl)cc6Cl)O5)cc4)CC3)cc2)c1=O (stereo not drawn) [A44, itraconazole]
IC50 [3]: 4 ± 1 µM
inhibition at 100 μmol/L [4]: 64 to 88%

CC1(C)S[C@@H]2[C@H](NC(=O)[C@H](N)c3ccccc3)C(=O)N2[C@H]1C(=O)O [A16, ampicillin]
Inhibition DDI index, OATP1B3 [1]: 8.55
IC50 [2]: 2080 ± 283 µM
inhibition at 5000 μmol/L [2]: 56 to 88%
IC50 [3]: 42 ± 18 µM
inhibition at 5000 μmol/L [4]: > 90%

CCN1CCN(C(=O)N[C@@H](C(=O)N[C@@H]2C(=O)N3[C@@H]2SC(C)(C)[C@@H]3C(=O)O)c2ccccc2)C(=O)C1=O [A13, piperacillin]
IC50 [6]: 591 ± 154 µM
Inhibition DDI index, OAT1 ([6]; antibiotic as perpetrator, tanshinol (X8) as victim, (Cmax × fu-p × R)/IC50): 0.75
inhibition at 5000 μmol/L ([6]; human): 63 to 88%
IC50 [7]: 1210 ± 434 µM
inhibition at 5000 µM [7, 8]: 60 to 84%
Inhibition DDI index, OAT2 [7]: 0.37
IC50 [5]: 797 ± 142 µM
Inhibition DDI index, UGT2B15 [5]: 0.56
inhibition at 5000 μmol/L ([5]; human, cDNA-expressed UGT2B15): 60 to 88%

CC[C@H](C)C[C@H](C)CCCCCCCCC(=O)N[C@H]1C[C@@H](O)[C@@H](NCCN)NC(=O)[C@@H]2[C@@H](O)CCN2C(=O)[C@H]([C@H](O)CCN)NC(=O)[C@H]([C@H](O)[C@@H](O)c2ccc(O)cc2)NC(=O)[C@@H]2C[C@@H](O)CN2C(=O)[C@H]([C@@H](C)O)NC1=O [A41, caspofungin]
IC50 [6]: 7 ± 2 µM
inhibition at 100 μmol/L ([6]; human): 63 to 88%
Inhibition DDI index, OATP1B3 [1]: 0.35
IC50 [3]: 1 µM
inhibition at 100 μmol/L [4]: > 90%
IC50 [5]: 39 ± 2 µM
inhibition at 100 μmol/L ([5]; human, cDNA-expressed UGT2B15): 60 to 88%

CCN1CCN(C(=O)N[C@@H](C(=O)N[C@@H]2C(=O)N3C(C(=O)O)=C(CSc4nnnn4C)CS[C@H]23)c2ccc(O)cc2)C(=O)C1=O [A8, cefoperazone]
Inhibition DDI index, OATP1B3 [1]: 1.72–4.43
IC50 [3]: 27 ± 9 µM
inhibition at 1000 μmol/L [4]: 64 to 88%
IC50 [5]: 971 ± 130 µM
Inhibition DDI index, UGT2B15 [5]: 0.12
inhibition at 1000 μmol/L ([5]; human, cDNA-expressed UGT2B15): 60 to 88%

CO/N=C(\C(=O)N[C@@H]1C(=O)N2C(C(=O)O)=C(CSc3nc(=O)c(=O)[nH]n3C)CS[C@H]12)c1csc(N)n1 [A6, ceftriaxone]
Inhibition DDI index, OATP1B3 [1]: 0.68
IC50 [3]: 201 ± 48 µM
inhibition at 1000 μmol/L [4]: 64 to 88%

C[C@H]1COc2c(N3CCN(C)CC3)c(F)cc3c(=O)c(C(=O)O)cn1c23 [A31, levofloxacin]
IC50 [7]: 50 ± 9 µM
inhibition at 100 µM [7, 8]: 60 to 84%
Inhibition DDI index, OAT2 [7]: 0.36

— PMC6804443 (Acta Pharmaceutica Sinica. B, 2019)
